Assay results as given in US10414739B2, “Compounds as inhibitors of the YAP/TAZ-TEAD interaction and their use in the treatment of malignant mesothelioma” (INVENTIVA, priority 2015, dated 2019).

What was measured:
[1] = system: YAP-TEAD interaction in co-transfected HEK293 cells; assay: Cell-based TEAD-GAL4 transactivation assay (luciferase reporter); conditions: Homo sapiens, HEK293 co-transfected with TEAD1-Gal4, YAP mutant (S127A, S397A) and reporter, 24 h
Protocol: Effect of Compounds on the Cell-Based TEAD-GAL4 Transactivation Assay
(§1) To identify inhibitors of YAP-TEAD interaction, a transient transactivation assays was carried out into HEK293 cell line (HEK293 GripTite™ 293 MSR (Invitrogen R795-07)) using plasmids containing the full length TEAD1 sequences, the full length YAP mutant (S127A, S397A) and a luciferase gene reporter. All expression constructs were performed into pSG5 backbone plasmid in which the SV40 promoter was replaced by the CMV promoter. The TEAD1 construct was prepared by cloning the full length human TEAD1 cDNA in fusion with the Gal4 DNA Binding Domain (AA 1-148) into pSG5_CMV to create the TEAD1(FL)_hum_pSG5Gal4_CMV. The full length YAP mutant (S127A, S397A) was also cloned into pSG5_CMV to create the YAP(FL)_hum_pSG5_mutS127A_S397A_CMV. The reporter plasmid GAL4(5×RE)_TK(−105/+56)_pGL3-Basic contains 5 copies of the GAL4 responsive element (5′-TCGGAGGACAGTACTCC-3′) upstream of the thymidine kinase (TK) promoter (−105/+56) inserted in a pGL3-Basic vector. To evaluate the selectivity of our compounds in blocking the YAP-TEAD interaction, a counter-screening protein-protein interaction transactivation assays was also established. Briefly, two other expression plasmids, the pBD-P53 which express the P53 (AA 72-390) in fusion with Gal4 and the pAD-SV40T which express the SV40 large T antigen (AA 84-708,AgT), were created. […] Twenty-four hours later, the luciferase activity was determined after addition of 100 μl of Steady Glo™ luciferase assay system (Promega E2550) according to the manufacturer's directions. Luciferase activity in cell extracts is measured by reading luminescence using the Envision device.
The cellular response was determined by fitting the concentration response curves using a 3-parameter curve fit equation and determining the concentration that inhibited the luciferase activity by 50%.

[2] = system: NCI-H2052 mesothelioma cell line; assay: Inhibition of malignant mesothelioma tumor cell growth (EdU proliferation); assay type: cell-based; conditions: NCI-H2052 (NF2 mutated), 1% serum
Protocol: Inhibition of Malignant Mesothelioma Tumor Cell Growth
The tumor cell growth inhibitory activity of the YAP-TEAD interaction inhibitors was evaluated in NCI-H2052 mesothelioma cell line harboring a NF2 mutation. This cell line was selected based on its mutational status and the ability of a siRNA directed against YAP, TAZ or TEAD1-4 to inhibit cell proliferation. The nuclear localization of YAP at confluence was also taken into account. Based on these observations we were able to classify several “YAP dependent cells” where YAP is clearly nuclear and in which a cell growth inhibition is observed by using siRNA (NCI-H2052, SKOV-3, ACHN, A549) and the “YAP independent cells” where YAP is preferentially located in the cytoplasm and in which no inhibition of cell growth is observed by using a siRNA (SW620, Met-5a). […] After one day growth in the starvation medium, cells were incubated with compounds. The starting concentration was 30 μM and serial dilutions in DMSO and medium were performed until […] to achieve a final DMSO concentration of 0.5%. The cells were then allowed to grow for 3 days, and then, EdU (Invitrogen, Molecular Probe) was added in each well at a final concentration of 10 μM and the cells were returned to the incubator for additional 24 h. Starvation medium was removed and 100 μl of PFA 4% containing Hoechst dye was adding in each well to fix the cells. Plates were then incubated at room temperature for 15 minutes, washed twice with PBS and the cells were permeabilized by adding 100 μl per well of triton-100 containing 0.3% BSA. […] Image acquisition was performed using the ImageXpress Micro and analysed using the MetaXpress software (Molecular Device). Results were expressed as a percent of inhibition (%) of the cell proliferation values obtained with 0.5% DMSO treatment alone. The cellular response was determined by fitting the concentration response curves using a 3 parameter curve fit equation and determining the concentration that inhibited cell growth between 50% and 100%.

[3] = system: P53 / SV40 large T antigen (AgT) interaction in HEK293 cells; assay: Counter-screening protein-protein interaction transactivation assay (P53+AgT); assay type: cell-based; conditions: HEK293, same conditions as TEAD-GAL4 assay
Protocol: as §1, with “created. HEK293 cells were seeded at 5×10^4 cells/well in 96 well plates (assay plates) in DMEM medium containing 4.5 g/L D-glucose, 10% high inactivated (HI) fetal bovine serum 1% Glutamax, 1% non-essential amino acid and 1% sodium pyruvate and 0.5% penicillin/streptomycin 37° C. in a humidified atmosphere of 8% CO2.” for “created.”

[4] = biological target: T1, YAP-TEAD interaction (human YAP2-His6 (50-114) / human TEAD1-GST (209-426)) (Homo sapiens, UniProt P28347); assay: YAP-TEAD AlphaLISA assay; assay type: binding; conditions: for Emax: 2 h, maximal % inhibition, read-out: Max Act.; for Emax / IC50: YAP-TEAD AlphaLISA; for IC50: 2 h equilibration at room temperature
T1 construct: GST-TEAD1 (209-426) produced in E. coli; made in house; host or cells: E. coli
Protocol: YAP-TEAD AlphaLISA Assay for IC50 Value Determination.
YAP-TEAD binding and inhibition was assessed by monitoring the engagement of YAP2 peptide (human YAP2-His6 (50-114) produced in E. coli) with TEAD (human TEAD1-GST (GST-TEAD1 (209-426) produced in E. coli) using the AlphaLisa technology (Perkin-Elmer). Specifically, in a 384 well (Axygen) 5 μl of compounds were dispensed in 100% DMSO following a semi log serial dilution, with a top concentration of […] (10 concentrations). A ‘3 partners solution’ was prepared by mixing AlphaScreen Glutathione Donor beads 15 μg/ml (PerkinElmer), Anti-6×His AlphaLisA Acceptor beads 15 μg/ml (PerkinElmer) and Human YAP2 9 nM in 100 mM NaCl, 25 mM Hepes, 0.1% BSA, 0.5% NoNidet®P40 buffer. In the 384 assay plate (Proxiplate, Perkin-Elmer)) 2 μl of compound at each concentration, 6 μl of buffer, 6 μl of hTEAD1-GST 9 nM and 6 μl of ‘3 partner solution’ were mixed. After 2 h equilibration at room temperature in the dark the plates were read on an Envision instrument (Excitation @ 680 nm/Emission @ 570 nm, Perkin Elmer).
Results were expressed as % inhibition=100×((HighControl−Cpd)/(HighControl−LowControl)), were High control is the maximum response obtained with all components and Low control is the basal response obtained with all components without GST-Tead1.
Cpd is the response obtained for test compounds.
IC50 (half maximal inhibitory concentration) was determined by fitting the concentration response curves using a 3-parameter curve fit equation and determining concentration corresponding to 50% inhibition.

SW620 cell line = assay: Cell proliferation in YAP-independent cell line (EdU); assay type: cell-based
Protocol: The tumor cell growth inhibitory activity of the YAP-TEAD interaction inhibitors was evaluated in NCI-H2052 mesothelioma cell line harboring a NF2 mutation. This cell line was selected based on its mutational status and the ability of a siRNA directed against YAP, TAZ or TEAD1-4 to inhibit cell proliferation. The nuclear localization of YAP at confluence was also taken into account. Based on these observations we were able to classify several “YAP dependent cells” where YAP is clearly nuclear and in which a cell growth inhibition is observed by using siRNA (NCI-H2052, SKOV-3, ACHN, A549) and the “YAP independent cells” where YAP is preferentially located in the cytoplasm and in which no inhibition of cell growth is observed by using a siRNA (SW620, Met-5a). […] After one day growth in the starvation medium, cells were incubated with compounds. The starting concentration was 30 μM and serial dilutions in DMSO and medium were performed until […] to achieve a final DMSO concentration of 0.5%. The cells were then allowed to grow for 3 days, and then, EdU (Invitrogen, Molecular Probe) was added in each well at a final concentration of 10 μM and the cells were returned to the incubator for additional 24 h. Starvation medium was removed and 100 μl of PFA 4% containing Hoechst dye was adding in each well to fix the cells. Plates were then incubated at room temperature for 15 minutes, washed twice with PBS and the cells were permeabilized by adding 100 μl per well of triton-100 containing 0.3% BSA. After 20 minutes cells were washed with PBS and the EdU detection was performed according to the instructions of the manufacturer. Image acquisition was performed using the ImageXpress Micro and analysed using the MetaXpress software (Molecular Device). Results were expressed as a percent of inhibition (%) of the cell proliferation values obtained with 0.5% DMSO treatment alone. The cellular response was determined by fitting the concentration response curves using a 3 parameter curve fit equation and determining the concentration that inhibited cell growth between 50% and 100%.

T1 sequence (P28347 209-426): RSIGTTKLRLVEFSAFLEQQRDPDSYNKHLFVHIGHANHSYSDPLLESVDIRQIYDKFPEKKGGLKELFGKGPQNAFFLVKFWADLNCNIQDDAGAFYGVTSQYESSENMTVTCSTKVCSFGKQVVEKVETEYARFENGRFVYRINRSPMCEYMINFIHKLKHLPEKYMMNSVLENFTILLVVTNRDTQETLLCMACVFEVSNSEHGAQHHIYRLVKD

Row | Emax [4] [%] | IC50 [4] [µM] | SMILES | further results
1 | 95 | 3.41 | COc1cc(/C=N/N(C)C2=NS(=O)(=O)c3c(C)cc(F)cc32)ccc1O [Example 20, 4-[(E)-[(5-fluoro-7-methyl-1,1-dioxo-1,2-benzothiazol-3-yl)-methyl-hydrazono]methyl]-2-methoxy-phenol] | melting point: > 260 °C
2 | 97 | 4.57 | COc1cc(/C=N/N(C)C2=NS(=O)(=O)c3cc(C(=O)O)ccc32)ccc1O [Example 34, 3-[[(E)-(4-hydroxy-3-methoxy-phenyl)methyleneamino]-methyl-amino]-1,1-dioxo-1,2-benzothiazole-6-carboxylic acid] | melting point: > 260 °C
3 | 77 | 78 | COc1cc(/C=N/N(C2=NS(=O)(=O)c3ccccc32)C(C)C)ccc1O [Example 36, 4-[(E)-[(1,1-dioxo-1,2-benzothiazol-3-yl)-isopropyl-hydrazono]methyl]-2-methoxy-phenol] | –
4 | 90 | 0.15 | COc1cc(OC)c2c(c1)C(N(CCO)/N=C/c1ccc(O)c(OC)c1)=NS2(=O)=O [Example 17, 4-[(E)-[(5,7-dimethoxy-1,1-dioxo-1,2-benzothiazol-3-yl)-(2-hydroxyethyl) hydrazono]methyl]-2-methoxy-phenol] | –
5 | – | – | COc1ccc(/C=N/N(C)C2=NS(=O)(=O)c3ccccc32)cc1OC [N-[(E)-(3,4-dimethoxyphenyl)methyleneamino]-N-methyl-1,1-dioxo-1,2-benzothiazol-3-amine, reference compound] | inhibition at 1000 µM ([4]; at 1 mM concentration): 30%
6 | 88 | 5 | CCN(/N=C/c1ccc(O)c(OC)c1)C1=NS(=O)(=O)c2ccccc21 [Example 3, 4-[(E)-[(1,1-dioxo-1,2-benzothiazol-3-yl)-ethyl-hydrazono]methyl]-2-methoxy-phenol] | –
7 | 90 | 1.63 | COc1ccc2c(c1)C(N(CCCO)/N=C/c1ccc(O)c(OC)c1)=NS2(=O)=O [Example 14, 4-[(E)-[3-hydroxypropyl-(5-methoxy-1,1-dioxo-1,2-benzothiazol-3-yl) hydrazono]methyl]-2-methoxy-phenol] | –
8 | 74 | 70.8 | COc1cc(/C=N/N(CC(F)(F)F)C2=NS(=O)(=O)c3ccccc32)ccc1O [Example 37, 4-[(E)-[(1,1-dioxo-1,2-benzothiazol-3-yl)-(2,2,2-trifluoroethyl)-hydrazono]methyl]-2-methoxy-phenol] | –
9 | 95 | 0.583 | COc1ccc2c(c1)C(N(CCN1CCOCC1)/N=C/c1ccc(O)c(OC)c1)=NS2(=O)=O [Example 12, 2-methoxy-4-[(E)-[(5-methoxy-1,1-dioxo-1,2-benzothiazol-3-yl)-(2-morpholinoethyl)hydrazono]methyl]phenol] | –
10 | 88 | 5.5 | COc1cc(/C=N/N(CCCO)C2=NS(=O)(=O)c3ccccc32)ccc1O [Example 5, 4-[(E)-[(1,1-dioxo-1,2-benzothiazol-3-yl)-(3-hydroxypropyl)hydrazono]-methyl]-2-methoxy-phenol] | –
11 | 90 | 0.878 | COCCN(/N=C/c1ccc(O)c(OC)c1)C1=NS(=O)(=O)c2c(OC)cc(C)cc21 [Example 30, 2-methoxy-4-[(E)-[2-methoxyethyl-(7-methoxy-5-methyl-1,1-dioxo-1,2-benzothiazol-3-yl)hydrazono]methyl]phenol] | –

Row | SMILES | Emax [4] [%] | IC50 [4] [µM] | further results
12 | COc1cc(/C=N/N(C)C2=NS(=O)(=O)c3ccccc32)ccc1O [Example 1, 4-[(E)-[(1,1-dioxo-1,2-benzothiazol-3-yl)-methyl-hydrazono]methyl]-2-methoxy-phenol] | 92 | 0.886 | melting point: 218 °C; inhibition at 30 µM [1]: 50 to 75%; inhibition of cell proliferation [2]: inhibited; inhibitory effect in counter screening assay (P53+AgT) [3]: no inhibitory effect was observed; inhibition at 0.886 µM ([4]; at 0.886 μM (so in the source)): 92%; effect on cell proliferation (SW620 cell line): without showing any effect
13 | COCCN(/N=C/c1ccc(O)c(OC)c1)C1=NS(=O)(=O)c2ccccc21 [Example 7, 4-[(E)-[(1,1-dioxo-1,2-benzothiazol-3-yl)-(2-methoxyethyl)hydrazono]-methyl]-2-methoxy-phenol] | 94 | 4.58 | inhibition at 30 µM [1]: 50 to 75%; inhibition of cell proliferation [2]: inhibited; inhibitory effect in counter screening assay (P53+AgT) [3]: no inhibitory effect was observed; effect on cell proliferation (SW620 cell line): without showing any effect
14 | COc1cc(/C=N/N(CCO)C2=NS(=O)(=O)c3ccccc32)ccc1O [Example 2, 4-[(E)-[(1,1-dioxo-1,2-benzothiazol-3-yl)-(2-hydroxyethyl)-hydrazono]methyl]-2-methoxy-phenol] | 93 | 0.949 | inhibition at 30 µM [1]: 50 to 75%; inhibition of cell proliferation [2]: inhibited; inhibitory effect in counter screening assay (P53+AgT) [3]: no inhibitory effect was observed; effect on cell proliferation (SW620 cell line): without showing any effect
